Laboratory results as given in US12583855B2, “RET selective inhibitor, preparation method therefor and use thereof” (SHOUYAO HOLDINGS (BEIJING) CO., LTD., priority 2019, dated 2026).
Residue numbers refer to the chain shown, from its start.

Legend:
RET^WT = target: T1, RET^WT (Homo sapiens, UniProt P07949); assay: In vitro enzymatic activity assay on RET^WT (HTRF); format: biochemical; details: GST-RET^WT (658-1114 aa) 0.5 nM, ATP 25 μM
T1 construct: GST-RET^WT (658-1114 aa, final concentration of 0.5 nM)
T1 sequence (P07949 658-1114): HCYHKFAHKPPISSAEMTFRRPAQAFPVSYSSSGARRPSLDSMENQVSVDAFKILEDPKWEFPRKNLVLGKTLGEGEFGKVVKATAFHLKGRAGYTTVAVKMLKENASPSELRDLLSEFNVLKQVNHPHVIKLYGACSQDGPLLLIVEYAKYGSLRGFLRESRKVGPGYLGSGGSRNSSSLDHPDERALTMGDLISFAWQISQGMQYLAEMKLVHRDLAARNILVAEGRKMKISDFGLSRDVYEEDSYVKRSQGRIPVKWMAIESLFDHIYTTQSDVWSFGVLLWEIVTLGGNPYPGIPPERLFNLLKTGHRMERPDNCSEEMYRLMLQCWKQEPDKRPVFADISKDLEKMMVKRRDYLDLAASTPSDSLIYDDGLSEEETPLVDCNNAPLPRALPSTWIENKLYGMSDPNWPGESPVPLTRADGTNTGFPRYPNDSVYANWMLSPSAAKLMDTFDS
Description: 1. In Vitro Enzymatic Activity Assay for Compounds on RET^WT
The compounds were diluted 5-fold with 100% DMSO starting from 0.2 mM (7 concentrations in total), and 2 μL of each concentration was added to 48 μL of reaction buffer (50 mM HEPES pH7.5, 0.1 mM Na3VO4, 5 mM MgCl2. 1 mM DTT, 0.001% Tween 20, and 100 μg/ml BSA) for dilution and mixing.
The 384-well plate was placed in an incubator and reacted at 23° C. for 2 h before the reaction was stopped by the addition of 5 μL of TK Antibody (purchased from Cisbio) and 5 μL of Streptavidin-XL665 (purchased from Cisbio). […] The enzymatic activity signal of RET^WT was measured at 7 concentrations for each compound and the data were calculated using GraphPad Prism software to obtain the IC50 value for the compound.

RET^V804M = target: T2, RET^V804M (Homo sapiens, UniProt P07949, V804M); assay: In vitro enzymatic activity assay on RET^V804M (HTRF); format: biochemical; details: GST-RET^V804M (658-1114 aa) 0.02 nM, ATP 1.5 μM
T2 construct: GST-RET^V804M (658-1114 aa, final concentration of 0.02 nM)
T2 sequence (P07949 658-1114 V804M): T1 sequence (P07949 658-1114) with V147M

VEGFR2 = VEGFR2 (Homo sapiens, UniProt P35968); assay: In vitro enzymatic activity assay on VEGFR2 (HTRF); format: biochemical; details: GST-VEGFR2 0.1 nM, ATP 2.5 μM
VEGFR2, sequence (P35968 20-1356): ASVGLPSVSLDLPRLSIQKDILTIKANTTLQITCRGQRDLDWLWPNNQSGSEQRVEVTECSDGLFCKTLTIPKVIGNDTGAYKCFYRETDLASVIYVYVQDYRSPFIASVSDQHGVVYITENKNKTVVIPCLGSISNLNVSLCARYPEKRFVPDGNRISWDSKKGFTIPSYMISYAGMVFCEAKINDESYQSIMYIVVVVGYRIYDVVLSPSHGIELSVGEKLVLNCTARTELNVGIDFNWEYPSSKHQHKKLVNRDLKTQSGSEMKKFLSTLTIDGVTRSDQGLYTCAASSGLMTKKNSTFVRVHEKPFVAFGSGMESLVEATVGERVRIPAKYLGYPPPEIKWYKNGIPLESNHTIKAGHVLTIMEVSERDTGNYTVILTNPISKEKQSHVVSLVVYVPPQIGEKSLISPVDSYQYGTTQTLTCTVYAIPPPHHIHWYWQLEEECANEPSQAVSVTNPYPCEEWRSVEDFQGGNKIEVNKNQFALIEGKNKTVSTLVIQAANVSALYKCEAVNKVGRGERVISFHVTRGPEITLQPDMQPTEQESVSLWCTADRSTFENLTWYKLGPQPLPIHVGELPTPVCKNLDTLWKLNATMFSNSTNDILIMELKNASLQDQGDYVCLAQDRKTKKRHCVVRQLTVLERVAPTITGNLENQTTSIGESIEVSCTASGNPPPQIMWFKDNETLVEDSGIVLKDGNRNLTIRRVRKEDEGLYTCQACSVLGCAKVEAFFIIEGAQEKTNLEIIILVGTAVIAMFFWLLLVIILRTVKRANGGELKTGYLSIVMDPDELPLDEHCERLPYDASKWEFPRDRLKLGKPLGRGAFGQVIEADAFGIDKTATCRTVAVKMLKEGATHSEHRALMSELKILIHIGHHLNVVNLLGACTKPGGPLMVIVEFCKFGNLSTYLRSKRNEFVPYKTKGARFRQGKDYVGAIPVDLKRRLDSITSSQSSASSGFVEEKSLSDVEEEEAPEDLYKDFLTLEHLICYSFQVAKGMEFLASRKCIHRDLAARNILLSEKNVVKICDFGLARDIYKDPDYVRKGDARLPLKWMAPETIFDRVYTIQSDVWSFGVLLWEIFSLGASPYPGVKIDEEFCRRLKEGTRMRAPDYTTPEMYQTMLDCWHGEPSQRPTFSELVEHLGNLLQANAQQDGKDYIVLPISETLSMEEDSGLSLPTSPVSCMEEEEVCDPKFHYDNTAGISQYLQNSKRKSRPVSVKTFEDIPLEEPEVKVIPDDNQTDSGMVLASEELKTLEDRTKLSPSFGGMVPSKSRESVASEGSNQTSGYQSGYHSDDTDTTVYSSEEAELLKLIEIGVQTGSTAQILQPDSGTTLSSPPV
Description: 3. n Vitro Enzymatic Activity Assay for Compounds on VEGFR2
The compounds were diluted 5-fold with 100% DMSO starting from 1 mM (7 concentrations in total), and 2 μL of each concentration was added to 48 μL of reaction buffer (50 mM HEPES pH 7.5, 0.1 mM Na3VO4, 5 mM MgCl2, 1 mM MnCl2, 1 mM DTT, 0.001% Tween 20, and 100 μg/ml BSA) for dilution and mixing. 2.5 μL of compounds and 5 μL of GST-VEGFR2 (final concentration of 0.1 nM) were added to a 384-well plate (OptiPlate-384, purchased from PerkinElmer), the mixture was mixed by centrifugation, and 2.5 μL of ATP (final concentration of 2.5 μM) and TK Peptide Substrate mixture (final concentration of 1 μM, purchased from Cisbio) were added to start the reaction, with a total reaction volume of 10 μL. The 384-well plate was placed in an incubator and reacted at 23° C. for 1.5 h before the reaction was stopped by the addition of 5 μL of TK Antibody (purchased from Cisbio) and 5 μL of Streptavidin-XL665 (purchased from Cisbio). After further incubation in the incubator for 1 h. fluorescence values (excitation at 320 nm, detecting emitted light at 665 nm and 620 nm, and a ratio of the two as an enzyme activity signal) were read on Envision (purchased from PerkinElmer). The enzymatic activity signal of VEGFR2 was measured at 7 concentrations for each compound and the data were calculated using GraphPad Prism software to obtain the IC50 value for the compound.

TT cells = assay: TT cell proliferation activity (Cell-Titer Glo); format: cell-based; details: TT human thyroid carcinoma cells, 120 h
Description: 4. Determination of TT Cell Proliferation Activity of Compounds
TT cells, a human thyroid carcinoma cell line, were cultured in Ham's F-12K medium supplemented with 15% fetal bovine serum (FBS, purchased from Biological Industries, BI) and 1% penicillin/streptomycin double antibody (P/S, purchased from Life Technology) under conditions of 37° C. and 5% CO2. TT cells were plated in a 96-well plate (#3917 purchased from Corning) at a concentration of 5000 cells/195 μL/well the day before compound was detected. The compounds were diluted 3-fold with 100% DMSO starting from 10 mM (10 concentrations in total) after 24 h, and 2 μL of each concentration was diluted in 48 μL of Ham's F-12K medium. 5 μL of each diluted compound was added to the plated Cell suspension, the compound and cells were co-incubated in a cell incubator for 120 h (5 days), after the medium was aspirated. 25 μL of Cell-Titer Glo (G7570, purchased from Promega) reagent was added and re-incubated for 5-10 min. Fluorescence value was then read on Envision and the data were calculated using GraphPad Prism software to obtain IC50 values for inhibition of cell proliferation by the compounds.

[1] = Pharmacokinetic data of compounds in male SD rats; format: in vivo; details: rat, po, intragastric, 5 mg/kg, suspension MC 0.5%, plasma
Description: 6. Pharmacokinetic Data of Compounds
Male SD rats (Beijing Vital River Laboratory Animal Technology Co., Ltd) were divided into groups. 3 in each group, received intragastric administration with the suspension of the test sample (5 mg/kg, suspensions MC 0.5%), respectively. Animals were fasted overnight prior to the experiment from 10 h before dosing to 4 h after dosing. Blood was collected 0.25, 0.5, 1, 2, 4, 6, 8, and 24 h after administration, respectively. After isoflurane anesthesia using a small animal anesthesia machine, 0.3 mL of whole blood samples was taken through the fundus venous plexus, placed in a heparin anticoagulant tube, and were centrifuged at 4° C. 4000 rpm for 5 min plasma was transferred to the centrifuge tube, and stored at −80° C. until analysis. Samples in the plasma were extracted using protein precipitation and the extracts were analyzed by LC/MS.

SMILES | IC50 (RET^WT) | IC50 (RET^V804M) | IC50 (VEGFR2) | IC50 (TT cells) | AUC(0-inf) [1] | Cmax [1] | Tmax [1] | half-life [1]
Cn1cc(-c2cc(-c3ccc(N4CCN(C(=O)C5=CCCC5)CC4)nc3)c3c(C#N)cnn3c2)cn1 [Example 2, 4-(6-(4-(cyclopent-1-ene-1-carbonyl)piperazin-1-yl)pyridin-3-yl)-6-(1-methyl-1Hpyrazol-4-yl)pyrazolo[1,5-a]pyridine-3-carbonitrile] | 0.108 nM | 0.906 nM | 13.4 nM | 26.1 nM | – | – | – | –
CS(=O)(=O)c1ccc(CN2C3CC2CN(c2ccc(-c4cc(-c5cnn(C(F)(F)F)c5)cn5ncc(C#N)c45)cn2)C3)cc1 [Example 84, 4-(6-(6-(4-(methylsulfonyl)benzyl)-3,64-diazabicyclo[3.1.1]heptan-3-yl)pyridin-3-yl)-6-(1-(trifluoromethyl)-1Hpyrazol-4-yl) pyrazolo[1,5-a] pyridine-3-carbonitrile] | 0.309 nM | – | 13.3 nM | – | 27300 ng·h/mL | 3090 ng/mL | 2 h | 2.78 h
CC1=C(C(=O)N2CCN(c3ccc(-c4cc(-c5cnn(C)c5)cn5ncc(C#N)c45)cn3)CC2)CCC1 [Example 6, 6-(1-methyl-1Hpyrazol-4-yl)-4-(6-(4-(2-methylcyclopent-1-ene-1-carbonyl)piperazin-1-yl)pyridin-3-yl)pyrazolo[1,5-a]pyridine-3-carbonitrile] | 0.332 nM | 1.25 nM | 8.91 nM | 13.8 nM | – | – | – | –
CSCCN1CCN(c2ccc(-c3cc(-c4cnn(C)c4)cn4ncc(C#N)c34)cn2)CC1 [Example 21, 6-(1-methyl-1Hpyrazol-4-yl)-4-(6-(4-(2-(methylthio)ethyl)piperazin-1-yl)pyridin-3-yl)pyrazolo[1,5-a]pyridine-3-carbonitrile] | – | – | 11.9 nM | 27.9 nM | – | – | – | –
CS(=O)(=O)c1ccc(CN2C3CC2CN(c2ccc(-c4cc(-c5cn[nH]c5)cn5ncc(C#N)c45)cn2)C3)cc1 [Example 53, 6-(1Hpyrazol-4-yl)-4-(6-(6-(4-(methylsulfonyl)benzyl)-3,6-diazabicyclo 13.1.11 heptan-3-yl)pyridin-3-yl)pyrazolo[1,5-a]pyridine-3-carbonitrile] | 0.072 nM | 0.807 nM | 2.46 nM | 14.6 nM | – | – | – | –
COc1ccc(CN2C3CC2CN(c2ccc(-c4cc(N5CC(F)(F)C5)cn5ncc(C#N)c45)cn2)C3)nc1 [Example 46, 6-(3,3-difluoroazetidin-1-yl)-4-(6-(6-((5-methoxypyridin-2-yl)methyl)-3,6-diazabicyclo [3.1.1]heptan-3-yl)pyridin-3-yl) pyrazolo[1,5-a]pyridine-3-carbonitrile] | 0.159 nM | – | 17.2 nM | 37.6 nM | – | – | – | –
CS(=O)(=O)c1ccc(CN2C3CC2CN(c2ccc(-c4cc(-c5cnn(C(F)F)c5)cn5ncc(C#N)c45)cn2)C3)nc1 [Example 78, 6-(1-(difluoromethyl)-1Hpyrazol-4-yl)-4-(6-(6-((5-(methylsulfonyl)pyridin-2-yl)methyl)-3,6-diazabicyclo[3.1.1]heptan-3-yl)pyridine-3-yl)pyrazolo[1,5-a]pyridine-3-carbonitrile] | 0.387 nM | 1.04 nM | 10.4 nM | 28.2 nM | – | – | – | –
Cn1cc(-c2cc(-c3ccc(N4CC5CC(C4)N5Cc4ccccc4S(C)(=O)=O)nc3)c3c(C#N)cnn3c2)cn1 [Example 43, 6-(1-methyl-1Hpyrazol-4-yl)-4-(6-(6-(2-(methylsulfonyl)benzyl)-3,6-diazabicyclo[3.1.1]heptan-3-yl)pyridin-3-yl)pyrazolo[1,5a]pyridine-3-carbonitrile] | 0.132 nM | 0.507 nM | 13.4 nM | 16.4 nM | – | – | – | –
COc1ccc(CN2CCN(c3ccc(-c4cc(N5CC(F)(F)C5)cn5ncc(C#N)c45)cn3)CC2)cn1 [Example 26, 6-(3,3-difluoroazetidin-1-yl)-4-(6-(4-((6-methoxypyridin-3-yl)methyl)piperazin-1-yl)pyridin-3-yl)pyrazolo[1,5-a]pyridine-3-carbonitrile] | 0.422 nM | – | 95.5 nM | – | 45000 ng·h/mL | 6000 ng/mL | 1.75 h | 4.9 h
Cn1cc(-c2cc(-c3cnc(N4CCN(Cc5ccc(S(C)(=O)=O)cc5)CC4)cn3)c3c(C#N)cnn3c2)cn1 [Example 42, 6-(1-methyl-1Hpyrazol-4-yl)-4-(5-(4-(4-(methylsulfonyl)benzyl)piperazin-1-yl)pyrazin-2-yl)pyrazolo[1,5-a]pyridine-3-carbonitrile] | 0.642 nM | – | 42.5 nM | 47.9 nM | – | – | – | –
COc1ccc(CN2C3CC2CN(c2cnc(-c4cc(-c5cnn(C)c5)cn5ncc(C#N)c45)cn2)C3)cn1 [Example 3, 4-(5-(6-((6-methoxypyridin-3-yl)methyl)-3,6-diazabicyclo[3.1.1]heptan-3-yl)pyrazin-2-yl)-6-(1-methyl-1Hpyrazol-4-yl) pyrazolo[1,5-a]pyridine-3-carbonitride] | – | – | 3.01 nM | 1.01 nM | – | – | – | –
CSc1ccc(CN2C3CCC2CN(c2ccc(-c4cc(-c5cnn(C(F)F)c5)cn5ncc(C#N)c45)cn2)C3)cn1 [Example 73, 6-(1-(difluoromethyl)-1Hpyrazol-4-yl)-4-(6-(8-((6-(methylthio)pyridin-3-yl)methyl)-3,8-diazabicyclo[3.2.1]octan-3-yl)pyridin-3-yl)pyrazolo[1,5-a]pyridine-3-carbonitrile] | 0.753 nM | 5.89 nM | 65.4 nM | – | – | – | – | –
